Measurements as given in publication PMC10447463, “Data-mining unveils structure–property–activity correlation of viral infectivity enhancing self-assembling peptides” (Nature Communications, 2023).
Several values for one entry are separate records, joined by “and”; a condition that tells them apart may be missing. Equal entries are not always repeated. Where two headings read alike, the source gives them in different places.

What was measured:
[1] = Turbidity, derived count rate of scattered light; type: physicochemical; conditions: for Count Rate / kcps: derived count rate of scattered light at 633 nm, 173°, from zeta-potential measurement, 0.1 mg/mL in 1 mM KCl after 1 d at 1 mg/mL in PBS, turbidity / microscopic aggregation, mean of triplicate
Procedure, shortened: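 Samples: 1 mg/mL in PBS pH 7.4 (from DMSO), 1 d at RT, then diluted in 1 mM KCl immediately before measurement. Triplicates, two independent runs averaged.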

[2] = Turbidity, derived count rate of scattered light; type: physicochemical; conditions: for Count Rate: derived count rate of scattered light (turbidity); for Log10 Count Rate: turbidity, derived count rate of scattered light, data of Figure 2D
[3] = β-sheet content by ATR-FT-IR; type: physicochemical; conditions: for b -sheet / %: Fig. S7 panel A, β-sheet content by ATR-FT-IR
Method: For ATR FT–IR spectroscopy measurements, 200 µL of the respective 1 mg/mL PNF solution was lyophilized and the resulting powder used for measurement. All spectra were recorded on a Bruker Tensor 27 spectrometer with a diamond crystal as ATR element (PIKE MiracleTM, spectral resolution 2 cm^-1). Every sample was measured with 64 scans. Data were analyzed with OriginLab software and calculation of β–sheet content was conducted according to a previous report. TEM. For TEM measurements 5 µL of PNF fibrils (1 mg/mL) were placed on copper grids coated with carbon and formvar layer (300 mesh, Plano GmbH). After 10 min incubation time, the grids were staining with 4% uranyl acetate solution for 2.5 min and washed with water. Measurements were performed on a Jeol 1400 electron microscope with 120 kV acceleration voltage. CR Assay. For the determination of the amount of peptide monomer converting into nanostructures the amine reactive dye fluorescamine was used analogous to a previous reported protocol. Briefly, 100 µL of the preformed PNF solution was centrifuged in a Vivaspin 500 tube (3 kDa MWCO) to separate fibers from free peptide monomer (16200 x g, 4 °C, 45 min). The filtrate and 100 μL of the non-filtered PNF sample were lyophilized and dissolved in 30 μL DMSO. 10 μL of the filtrate and non-filtered DMSO samples were submitted in a black UV Star® 384 microliter well–plates (Greiner bio–one) and 3 μL of the fluorescamine solution (10 mg/mL, DMSO) was added to measure the fluorescence enhancement. After 20 min of incubation at RT, fluorescence was recorded on an Infinite® M1000 PRO microplate reader (Tecan) at λem = 470 nm upon excitation at λex = 365 nm with 10 nm bandwidths and multiple reads per well (3×3). Measurements were repeated in triplicates and averaged with standard deviation. All values were calculated as n-fold fluorescence enhancement (DMSO only as a reference was set to 1). The conversion rate CR was defined according to the equation Eq. (3).3 CR=100−100×fluorescenceintensityfiltrate/fluorescenceintensityoriginal[%]

[4] = type: physicochemical; set-up: key to Fibril / Fibril Formation / TEM 2cat / Fibril: 1 = fibrils present; 0 non-fibrillar structures; conditions: for Fibril / Fibril Formation: 1 mg/mL, uranyl acetate stain, qualitative
[5] = Zeta-potential measurement; type: physicochemical; conditions: for Zeta pot. / mV: 1 mg/mL in PBS pH 7.4 from 10 mg/mL DMSO stock, 1 d RT, 60 µL diluted in 600 µL 1 mM KCl, Zetasizer Nano ZS, Smoluchowski, mean of triplicate
Procedure, shortened: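 Aggregates: 1 mg/mL peptide, PBS pH 7.4, 1 d RT; dilute in KCl (1 mM, aq); measure mobility → zeta via Smoluchowski.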

[6] = Log10 of derived count rate of scattered light (turbidity)
[7] = log10 of derived count rate of scattered light (turbidity)
[8] = logarithm of count rate in kcps
[9] = turbidity, Log10 of derived count rate of scattered light, Figure 3A source data
[10] = Fig S10 panel D, fibril category by TEM
[11] = TEM, 1 = fibrils present, 0 = non-fibrillar
[12] = TEM, 1 = fibrils present, 0 = non-fibrillar structures
[13] = category: fibrils present or non-fibrillar
[14] = zeta-potential of peptide, source data of Figure 2C
[15] = zeta-potential of the peptide assemblies, mean, Figure 3A source data
[16] = turbidity, log10 of derived count rate of scattered light
[17] = FigS12 panel A, fibril category by TEM
[18] = zeta potential of peptide assemblies

Substance	Log10 Count Rate [1, 6]	Count Rate / kcps [1]	Log10 Count Rate [1, 7]	Log10 Count Rate [1, 8]	Log10 Count Rate [1, 9]	Count Rate [2]	Log10 Count Rate [2]	b -sheet / % [3] [%]	TEM 2cat [4, 10]	Fibril ([4]; Fig S10 panel E)	Fibril / Fibril Formation ([4]; TEM)	Fibril [4, 11]	Fibril [4, 12]	TEM 2cat [4, 13]	Zeta-Pot. [5]	Zeta-Potential / mV [5, 14] [mV]	Zeta-Potential / mV [5, 15] [mV]	TEM 2cat [4, 17]	Fibril ([4]; FigS12 panel B, TEM)	Zeta-Pot. [5, 18]	other results
CKFKFQFW	4.466	29211 kcps	4.466	4.466	4.466	29210.5	4.466	42.53	1	1	1	1	1	1	15.2	16.02	15.2				
CKFKQFF	0.4094	3 kcps		0.4099	0.4094	2.567	0.4094	45.4057		0	0	0	0		11.56	8.055	11.56	0	0		Log10 Count Rate [1, 16]: 0.4094; TEM 2cat ([4]; Fig S10 panel D): 0
CKFKQFFNM	4.436	27264 ± 5488 kcps and 27264 kcps		4.436	4.436	27264.3	4.436	41.58			1	1	1	1	15.2	15.05	15.2				Log10 Count Rate [1, 16]: 4.436; TEM 2cat ([4]; Fig S10 panel D): 1
CKFKQFFNMWQ	3.914	8210 kcps			3.914	8210	3.914	59.11		1	1	1	1	1	8.563	10.915	8.56				Log10 Count Rate [1, 16]: 3.914; TEM 2cat ([4]; Fig S10 panel D): 1
CKIKIQI	3.386	2432 ± 1342 kcps and 2433 kcps	3.386	3.386	3.386	2432.9	3.386	53	1	1	1	1	1	1		13.2	12.8			12.8	Zeta Count Rate ([1]; mean of the 3 replicates): 2432.9 kcps; Zeta Count Rate ([1]; replicate 2): 1640.5 kcps; Zeta Count Rate ([1]; replicate 3): 4323.3 kcps; FTIR ß-sheet content [3]: 53%; Zeta pot. / mV [5]: 12.8 mV
CKIKIQINM	3.626	4228 kcps	3.626		3.626	4228	3.626	42.84	1	1	1	1	1	1		14.3	16.83			16.83	
CKIKIQINMW	3.692	4915 kcps	3.692		3.692	4915	3.692	42.9134	1		1	1	1	1	18.3	18.43	18.3				
CKIKIQIRGD	3.762	5777 kcps	3.762		3.762	5777	3.762	58.14	1	1	1	1	1	1		7.157	7.16			7.157	
CKIKQII	1.873	74 ± 27 kcps and 75 kcps	1.873	1.873	1.873	74.6	1.873	25	1	1	1	1	1			5.568	-3.83	1	1	-3.83	Zeta pot. / mV [5]: -3.83 mV
CKIKQIINMWQ	3.92	8317 kcps	3.92	3.92	3.92	8317	3.92	51	1	1	1	1	1	1		10.55	13.4			13.4	
CKIW	0.5051	3 kcps	0.5051		0.5051	3.2	0.5051	46.02	0	0	0	0	0		-3.71	-2.772	-3.71	0	0		
CQFQFQF	3.899	7929 kcps	3.899	3.899	3.899	7929	3.899	34.9	1		1	1	1	1		-25.37	-24.8			-24.8	
CSISIQI	4.01	10241 kcps	4.01	4.01	4.01	10241.1	4.01	58.57	1	1	1	1	1			-26.07	-25.93	1	1	-25.93	
